Patent publication US5411933A, “Bromopropargyl quarternary ammonium compounds having antimicrobial activity” (Rohm & Haas Company, priority 1994, dated 1995)

Tests used:
Pseudomonas aeruginosa = assay: minimum inhibitory concentration, broth two-fold serial dilution test, Pseudomonas aeruginosa; assay type: cell-based, Pseudomonas aeruginosa ATCC 15442; details: for MIC: Pseudomonas aeruginosa, ATCC15442, Pseudomonas aeruginosa ATCC 15442, TSB media, lowest concentration with complete inhibition of growth, read-out: MIC (TSB media) Psae; for MIC (TSB media) Psae: Pseudomonas aeruginosa ATCC 15442, lowest concentration with complete inhibition of growth
Protocol: (§1) Bactericidal and fungicidal evaluations of the compounds of Example 5 were carried out.
(§2) A minimum inhibitory concentration (MIC) value is obtained using a broth, two-fold serial dilution test performed as follows: A stock solution or dispersion of the test compound, typically at a concentration of 1%, is made in a 5:3:2 solvent solution of acetone, methanol, and water. A volume of the stock solution is dispensed into culture media to give an initial starting test concentration of 500 ppm compound.
(§3) When the test is ready to be done, each vessel in the dilution series, except the first vessel, contains an equal volume of compound free broth. The first vessel contains twice the volume of broth with the starting concentration of test compound. One half of the broth from the first vessel is transferred to the second vessel. After being mixed, one half the resulting volume is removed from the second vessel and transferred to the third vessel. The entire cycle is repeated sufficiently to give a series of concentrations amounting to 500, 250, 125, 63, 31, 16, 8 and 4, 2, 1, 0.5, 0.25 ppm respectively.
(§4) Each vessel is then inoculated with a cell suspension of the appropriate test organism. Bacteria are grown in broth, fungi or agar slants for a time and at a temperature appropriate to the species being tested, and algae are a mixture of green algae and blue-green bacteria grown in a nutrient media. At the end of the growth period, in the case of bacteria, the broth is vortexed to disperse the cells.
(§5) The vessels are then incubated at the appropriate temperature. After the incubation, the vessels are examined for growth/no growth. The minimum inhibitory concentration (MIC) is defined as the lowest concentration of compounds that results in complete inhibition of growth of the test organism.
1. Pseudomonas aeruginosa

Rhodotorula rubra = assay: minimum inhibitory concentration, broth two-fold serial dilution test, Rhodotorula rubra; assay type: cell-based; details: lowest concentration with complete inhibition of growth; for MIC: Rhodotorula, TSB media, read-out: MIC (TSB media) Rrub
Protocol: as §1, §2, §3, §4
(§6) In the case of fungi, the spores are harvested by pipetting water onto the slant and dislodging the spores with a sterile loop. The cell/spore suspension is standardized by controlling incubation time, temperature, and the volume of the diluent. The suspension is then used to inoculate the vessels containing the broth compound.
as §5
4. Rhodotorula rubra Rrub

Escherichia coli = assay: minimum inhibitory concentration, broth two-fold serial dilution test, Escherichia coli; assay type: cell-based, Escherichia coli ATCC 11229; details: for MIC: Escherichia coli, ATCC11229, Escherichia coli ATCC 11229, TSB media, lowest concentration with complete inhibition of growth, read-out: MIC (TSB media) Ecol; for MIC (TSB media) Ecol: Escherichia coli ATCC 11229, lowest concentration with complete inhibition of growth
Protocol: as §1, §2, §3, §4, §5

Aspergillus niger = assay: minimum inhibitory concentration, broth two-fold serial dilution test, Aspergillus niger; assay type: cell-based, Aspergillus niger ATCC 6275; details: for MIC: Aspergillus niger, ATCC6275, Aspergillus niger ATCC 6275, TSB media, lowest concentration with complete inhibition of growth, read-out: MIC (TSB media) Anig; for MIC (TSB media) Anig: Aspergillus niger ATCC 6275, lowest concentration with complete inhibition of growth
Protocol: as §1, §2, §3, §4, §6, §5
3. Aspergillus niger 6275 Anig

SMILES	MIC (Pseudomonas aeruginosa) [µg/mL]	MIC (Rhodotorula rubra) [µg/mL]	MIC (Escherichia coli) [µg/mL]	MIC (Aspergillus niger) [µg/mL]	MIC (TSB media) Psae (Pseudomonas aeruginosa) [ppm]	MIC (TSB media) Ecol (Escherichia coli) [ppm]	MIC (TSB media) Rrub (Rhodotorula rubra) [ppm]	MIC (TSB media) Anig (Aspergillus niger) [ppm]
CCCCCCCCCCCCCC[N+]1(CC#CBr)CCCC1 [Compound 1, 1-tetradecyl-1-(3-bromopropargyl)-pyrrolidinium 4-methylbenzenesulfonate]	> 500	< 4	8	< 4				
CCCCCCCCCCCCCC[N+]1(CC#CBr)CCOCC1 [Compound 2, 1-tetradecyl-1-(3-bromopropargyl)-morpholinium benzenesulfonate]		< 4		< 4	63	8		
CCCCCCCCCCCCCC[N+]1(CC#CBr)CCOCC1 [Compound 3, 1-tetradecyl-1-(3-bromopropargyl)-morpholinium 4-methylbenzenesulfonate]					250	8	< 4	< 4
CCCCCCCCCCCCCC[N+]1(CC#CBr)CCOCC1 [Compound 4, 1-tetradecyl-1-(3-bromopropargyl)-morpholinium methanesulfonate]					500	32	< 4	< 4
CCCCCCCCCCCCCC[N+]1(CC#CBr)CCCC1 [Compound 5, 1-tetradecyl-1-(3-bromopropargyl)-pyrrolidinium benzenesulfonate]					500	8	< 4	< 4
CCCCCCCCCCCCCC[N+]1(CC#CBr)CCCCC1 [Compound 6, 1-tetradecyl-1-(3-bromopropargyl)-piperidinium methanesulfonate]		< 4		< 4	> 500	> 500		
CCCCCCCCCCCCCC[N+]1(CC#CBr)CCOCC1 [Compound 7, 1-tetradecyl-1-(3-bromopropargyl)-morpholinium n-butanesulfonate]					500	16	< 4	< 4
CCCCCCCCCCCCCC[N+]1(CC#CBr)CCCC1 [Compound 8, 1-tetradecyl-1-(3-bromopropargyl)-pyrrolidinium n-butanesulfonate]					250	< 4	< 4	< 4
CCCCCCCCCCCCCC[N+]1(CC#CBr)CCOCC1 [Compound 9, 1-tetradecyl-1-(3-bromopropargyl)-morpholinium bromide]					125	8	< 4	< 4
CCCCCCCCCCCCC[N+]1(CC#CBr)CCOCC1 [Compound 10, 1-tridecyl-1-(3-bromopropargyl)-morpholinium bromide]	250	< 4	32	16				
CCCCCCCCCCCCCCCC[N+]1(CC#CBr)CCOCC1 [Compound 11, 1-hexadecyl-1-(3-bromopropargyl)-morpholinium bromide]	500					16	< 4	< 4
CCCCCCCCCCCC[N+]1(CC#CBr)CCOCC1 [Compound 12, 1-dodecyl-1-(3-bromopropargyl)-morpholinium 4-methylbenzenesulfonate]	500	< 4	63	16				
CCCCCCCCCCCCCCCC[N+]1(CC#CBr)CCOCC1 [Compound 13, 1-hexadecyl-1-(3-bromopropargyl)-morpholinium methanesulfonate]					500	> 500	32	16
CCCCCCCCCCCCCC[N+]1(CC#CBr)CCCCC1C (centres unmarked) [Compound 14, 1-tetradecyl-1-(3-bromopropargyl)-(2-methyl)piperidinium 4-methylbenzenesulfonate]			< 4	< 4	125		< 4	
